# Reference: ChEMBL document CHEMBL5038625, “Application of the dual-tail approach for the design and synthesis of novel Thiopyrimidine-Benzenesulfonamide hybrids as selective carbonic anhydrase inhibitors” (Eur J Med Chem, 2022)
# pIC50: −log10 of the molar value.
# Assays:
# OVCAR-4 = experiment: Antiproliferative activity against human OVCAR-4 cells assessed as cell growth inhibition at 10 uM incubated for 24 hrs by sulforhodamine B assay; format: functional; details: read-out: GI
# HCT-116 = experiment: Antiproliferative activity against human HCT-116 cells assessed as reduction in cell viability incubated for 24 hrs by sulforhodamine B assay; details: HCT-116, 24 h
# [1] = Antiproliferative activity against human […] cells assessed as cell growth inhibition at 10 uM incubated for 24 hrs by sulforhodamine B assay; format: functional; details: read-out: GI
# HOP-62 = experiment: Antiproliferative activity against human HOP-62 cells assessed as cell growth inhibition at 10 uM incubated for 24 hrs by sulforhodamine B assay; format: functional; details: read-out: GI
# K562 = experiment: Antiproliferative activity against human K562 cells assessed as cell growth inhibition at 10 uM incubated for 24 hrs by sulforhodamine B assay; format: functional; details: read-out: GI
# A549 [2] = experiment: Antiproliferative activity against human A549 cells assessed as cell growth inhibition at 10 uM incubated for 24 hrs by sulforhodamine B assay; format: functional; details: read-out: GI
# M14 = experiment: Antiproliferative activity against human M14 cells assessed as cell growth inhibition at 10 uM incubated for 24 hrs by sulforhodamine B assay; format: functional; details: read-out: GI
# OVCAR-5 = experiment: Antiproliferative activity against human OVCAR-5 cells assessed as cell growth inhibition at 10 uM incubated for 24 hrs by sulforhodamine B assay; format: functional; details: read-out: GI
# HL-60 = experiment: Antiproliferative activity against human HL-60 cells assessed as cell growth inhibition at 10 uM incubated for 24 hrs by sulforhodamine B assay; format: functional; details: read-out: GI
# MCF7 [3] = experiment: Induction of apoptosis in human MCF cells assessed as early apoptotic cells measured after 48 hrs by Annexin-V-FITC/propidium iodide staining based flow cytometry (reference value: 0.09%); format: functional
# NCI/ADR-RES = experiment: Antiproliferative activity against human NCI-ADR-RES cells assessed as cell growth inhibition at 10 uM incubated for 24 hrs by sulforhodamine B assay; format: functional; details: read-out: GI
# KM12 = experiment: Antiproliferative activity against human KM12 cells assessed as cell growth inhibition at 10 uM incubated for 24 hrs by sulforhodamine B assay; format: functional; details: read-out: GI
# HT-29 = experiment: Antiproliferative activity against human HT-29 cells assessed as cell growth inhibition at 10 uM incubated for 24 hrs by sulforhodamine B assay; format: functional; details: read-out: GI
# NCI-H460 = experiment: Antiproliferative activity against human NCI-H460 cells assessed as cell growth inhibition at 10 uM incubated for 24 hrs by sulforhodamine B assay; format: functional; details: read-out: GI
# MDA-MB-231 [4] = experiment: Cell cycle arrest in human MDA-MB-231 cells assessed as accumulation at sub G1 phase incubated for 48 hrs by propidium iodide staining based flow cytometric analysis (reference value: 0.2 %); format: functional
# MDA-MB-231 [5] = experiment: Cell cycle arrest in human MDA-MB-231 cells assessed as accumulation at G1 phase incubated for 48 hrs by propidium iodide staining based flow cytometric analysis (reference value: 55.63 %); format: functional
# MCF7 [6] = experiment: Cell cycle arrest in human MCF7 cells assessed as accumulation at G1 phase incubated for 48 hrs by propidium iodide staining based flow cytometric analysis (reference value: 42.84 %); format: functional
# MCF7 [7] = experiment: Antiproliferative activity against human MCF7 cells assessed as reduction in cell viability incubated for 24 hrs by sulforhodamine B assay; format: functional, cell-based; details: MCF7, 24 h
# NCI-H522 = experiment: Antiproliferative activity against human NCI-H522 cells assessed as cell growth inhibition at 10 uM incubated for 24 hrs by sulforhodamine B assay; format: functional; details: read-out: GI
# MCF7 [8] = experiment: Cell cycle arrest in human MCF7 cells assessed as accumulation at G2 phase incubated for 48 hrs by propidium iodide staining based flow cytometric analysis (reference value: 20.73 %); format: functional
# SK-OV-3 [9] = experiment: Antiproliferative activity against human SK-OV-3 cells assessed as cell growth inhibition at 10 uM incubated for 24 hrs by sulforhodamine B assay; format: functional; details: read-out: GI
# EKVX = experiment: Antiproliferative activity against human EKVX cells assessed as cell growth inhibition at 10 uM incubated for 24 hrs by sulforhodamine B assay; format: functional; details: read-out: GI
# Malme-3M = experiment: Antiproliferative activity against human Malme-3M cells assessed as cell growth inhibition at 10 uM incubated for 24 hrs by sulforhodamine B assay; format: functional; details: read-out: GI
# MDA-MB-231 [10] = experiment: Induction of apoptosis in human MDA-MB-231 cells assessed as necrotic cells measured after 48 hrs by Annexin-V-FITC/propidium iodide staining based flow cytometry (reference value: 1.13%); format: functional
# SK-OV-3 [11] = experiment: Antiproliferative activity against human SK-OV-3 cells assessed as reduction in cell viability incubated for 24 hrs by sulforhodamine B assay; details: SK-OV-3, 24 h
# ACHN = experiment: Antiproliferative activity against human ACHN cells assessed as cell growth inhibition at 10 uM incubated for 24 hrs by sulforhodamine B assay; format: functional; details: read-out: GI
# MDA-MB-231 [12] = experiment: Induction of apoptosis in human MDA-MB-231 cells assessed as early apoptotic cells measured after 48 hrs by Annexin-V-FITC/propidium iodide staining based flow cytometry (reference value: 0.02%); format: functional
# SW-620 = experiment: Antiproliferative activity against human SW-620 cells assessed as reduction in cell viability incubated for 24 hrs by sulforhodamine B assay; details: SW-620, 24 h
# RXF 393 = experiment: Antiproliferative activity against human RXF 393 cells assessed as cell growth inhibition at 10 uM incubated for 24 hrs by sulforhodamine B assay; format: functional; details: read-out: GI
# MDA-MB-231 [13] = experiment: Cell cycle arrest in human MDA-MB-231 cells assessed as accumulation at G2 phase incubated for 48 hrs by propidium iodide staining based flow cytometric analysis (reference value: 20.65 %); format: functional
# RPMI-8226 = experiment: Antiproliferative activity against human RPMI-8226 cells assessed as cell growth inhibition at 10 uM incubated for 24 hrs by sulforhodamine B assay; format: functional; details: read-out: GI
# MDA-MB-231 [14] = experiment: Induction of apoptosis in human MDA-MB-231 cells assessed as viable cells measured after 48 hrs by Annexin-V-FITC/propidium iodide staining based flow cytometry (reference value: 97.93%); format: functional
# MDA-MB-231 [15] = experiment: Antiproliferative activity against human MDA-MB-231 cells assessed as cell growth inhibition at 10 uM incubated for 24 hrs by sulforhodamine B assay; format: functional; details: read-out: GI
# UACC-257 = experiment: Antiproliferative activity against human UACC-257 cells assessed as cell growth inhibition at 10 uM incubated for 24 hrs by sulforhodamine B assay; format: functional; details: read-out: GI
# A549 [16] = experiment: Antiproliferative activity against human A549 cells assessed as reduction in cell viability incubated for 24 hrs by sulforhodamine B assay; details: A549, 24 h
# PC-3 = experiment: Antiproliferative activity against human PC-3 cells assessed as cell growth inhibition at 10 uM incubated for 24 hrs by sulforhodamine B assay; format: functional; details: read-out: GI
# MCF7 [17] = experiment: Induction of apoptosis in human MCF cells assessed as necrotic cells measured after 48 hrs by Annexin-V-FITC/propidium iodide staining based flow cytometry (reference value: 0.94%); format: functional
# COLO 205 = experiment: Antiproliferative activity against human COLA 205 cells assessed as reduction in cell viability incubated for 24 hrs by sulforhodamine B assay; details: COLO 205, 24 h
# MDA-MB-468 = experiment: Antiproliferative activity against human MDA-MB-468 cells assessed as cell growth inhibition at 10 uM incubated for 24 hrs by sulforhodamine B assay; format: functional; details: read-out: GI
# UACC-62 = experiment: Antiproliferative activity against human UACC-62 cells assessed as cell growth inhibition at 10 uM incubated for 24 hrs by sulforhodamine B assay; format: functional; details: read-out: GI
smiles,measurement,setting,value
COc1ccc(OC)c(-c2nc(SCC(=O)c3ccc(Br)cc3)nc(Nc3ccc(S(N)(=O)=O)cc3)c2C#N)c1,inhibition of growth at 10 µM,OVCAR-4,42.6%
same,pIC50,HCT-116,5.60
same,inhibition of growth at 10 µM,[1],18.4%
same,inhibition of growth at 10 µM,HOP-62,51.6%
same,inhibition of growth at 10 µM,K562,77.5%
same,inhibition of growth at 10 µM,A549 [2],32.5%
same,inhibition of growth at 10 µM,M14,57.5%
same,inhibition of growth at 10 µM,OVCAR-5,26.7%
same,inhibition of growth at 10 µM,HL-60,74.1%
same,Activity,MCF7 [3],0.73%
same,inhibition of growth at 10 µM,NCI/ADR-RES,25.6%
same,inhibition of growth at 10 µM,KM12,79.1%
same,inhibition of growth at 10 µM,HT-29,72.8%
same,inhibition of growth at 10 µM,NCI-H460,79.2%
same,Activity,MDA-MB-231 [4],11.52%
same,Activity,MDA-MB-231 [5],39.7%
same,Activity,MCF7 [6],5.77%
same,pIC50,MCF7 [7],5.60
same,inhibition of growth at 10 µM,NCI-H522,52%
same,Activity,MCF7 [8],50.47%
same,inhibition of growth at 10 µM,SK-OV-3 [9],20.1%
same,inhibition of growth at 10 µM,EKVX,36.3%
same,inhibition of growth at 10 µM,Malme-3M,49.8%
same,Activity,MDA-MB-231 [10],7.18%
same,pIC50,SK-OV-3 [11],4.52
same,inhibition of growth at 10 µM,ACHN,44.1%
same,Activity,MDA-MB-231 [12],0.48%
same,pIC50,SW-620,5.35
same,inhibition of growth at 10 µM,RXF 393,82.7%
same,Activity,MDA-MB-231 [13],30.07%
same,inhibition of growth at 10 µM,RPMI-8226,48.8%
same,Activity,MDA-MB-231 [14],87.15%
same,inhibition of growth at 10 µM,MDA-MB-231 [15],37%
same,inhibition of growth at 10 µM,UACC-257,43.1%
same,pIC50,A549 [16],4.78
same,inhibition of growth at 10 µM,PC-3,64.7%
same,Activity,MCF7 [17],7.15%
same,pIC50,COLO 205,4.88
same,inhibition of growth at 10 µM,MDA-MB-468,56.1%
same,inhibition of growth at 10 µM,UACC-62,57.3%
